{
  "source": "patent US4127525A",
  "about": "“Novel tridecapeptides, intermediates therefor, and compositions and methods employing said tridecapeptides” (priority 1977, dated 1978)",
  "origin": "cited, not measured here",
  "key": {"rat": {"test_system": "rat", "conditions": "injected directly into the brain of the rat"}, "[1]": {"test_system": "partially purified brain opiate receptor sites", "conditions": "natural peptide"}},
  "data": [
    {"substance": "H-Tyr-Gly-Gly-Phe-Met-OH [methionine enkephalin]", "values": [
      {"measurement": "analgesic activity", "setting": "rat", "value": "only weak analgesic agent of short duration"},
      {"measurement": "binding to partially purified brain opiate receptor sites", "setting": "[1]", "value": "binds stereo-specifically"}
    ]}
  ]
}
